From patent US12390435B2, “Electrophiles and electrophile pro-drugs as RAD51 inhibitors” (University of Pittsburgh—Of the Commonwealth System of …, priority 2018, dated 2025)

Assays:
MDA-MB-468 cells = test: Matrigel cell invasion assay; assay type: cell-based; details: NO2-OA/NO2-SA 5 μM, JSH-23 10 μM, TNFα 20 ng/mL, 24 hr
Method: Cells were then suspended in migration media and placed in the top well of invasion chambers (EMD Millipore). Chemoattractant (5% FBS) was placed in the lower chamber for 24 hr at 37° C. to attract invasive cells. Cells were then harvested and invasion rates were determined according to manufacturer's protocol. Three individual experiments were done, and statistical comparison among treatments was determined by one-way analysis of variance followed by Tukey post-test.

[1] = test system: RAD51 foci in MDA-MB-231 cells; test: RAD51 foci and γH2AX immunofluorescence after 5 Gy IR; assay type: cell-based
Method: To analyze RAD51 foci formation, 10,000 cells were plated to CultureWell 16-well chambered cover glass (MIDSCI) coated with poly-L-lysine (Sigma) and incubated overnight in 5% FBS media. […] Cells were fixed with 10% formalin for 20 min at 4° C. and immunostained with RAD51 (Santa Cruz) or γH2AX (EMD Biosciences) antibodies. Z-stack images were acquired using a Nikon AIR confocal microscope with 60× oil objective and acquisition performed using NIS elements software. Quantification of z-stacks and foci were completed using ImageJ software.
Data represent the mean±SEM from 3 independent experiments unless otherwise noted. A p value<0.05 was considered statistically significant. Non-linear curves were generated in GraphPad Prism 7.0 (GraphPad Software, La Jolla, CA, USA) for statistical analysis. EC50 values and standard error were calculated from three independent experiments utilizing a non-linear dose response variable slope model. Significance was tested by one-way ANOVA for multiple groups with Tukey posttest or by t-test when groups were less than three. RAD51 foci number was analyzed with ImageJ. Nuclear boundaries were individually identified in more than 50 cells per treatment group in three independent experiments.

RAD51 = test: Biotinylated nitro fatty acid affinity capture of RAD51; assay type: binding; details: 293T cells expressing WT or mutant RAD51
Method: HEK 293T were transiently transfected with Fugene 6 (Promega) and 5 μg RAD51 expressing vectors (wild-type, C312S, or C319S). […] Cells were prepared as above. […] Detection of RAD51 was accomplished by immunoblot with RAD51 antibody (1:2000) with actin antibody (1:3000) probed as loading control.

[2] = test system: MDA-MB-231 xenograft tumor; test: MDA-MB-231 xenograft tumor growth, 7.5 mg/kg/day oral gavage; assay type: in vivo, mice
Method: MDA-MB-231 cells were injected into the fourth inguinal mammary fat pad of 6-week-old female athymic nude mice.

NF-κB target genes = test: qPCR / RT2 profiler array of NF-κB target genes; assay type: cell-based, human; details: 5 μM
Method: Total RNA samples of tissues or cells were extracted using TRIZOL reagents according to the manufacturer's instructions (Invitrogen). Total RNA (1 μg) was reverse transcribed using the iScript cDNA kit (Bio-Rad) according to manufacturer instructions. cDNA (25 ng) was used for each subsequent quantitative real-time PCR (qRT-PCR) reaction. All qRT-PCR was performed on the StepOne PLUS PCR system (Thermo Fisher Scientific) using TaqMan gene expression assays. Fold change was calculated using the ΔΔCt method with 18S ribosomal RNA or human β-actin RNA serving as the internal control. Three individual experiments were done, and statistical significance was determined by one-way analysis of variance followed by Tukey post-test. […] The expression of 84 human NF-κB target genes was analyzed with 96-well plate format as instructed in the manufacturer's handbook (Qiagen). PCR amplification was conducted by StepOne PLUS PCR system and fold change of gene expression was calculated according to the manufacturer's instruction.

RAD51 and ABL core = molecular target: T1, RAD51 and ABL core (Homo sapiens, UniProt Q06609); test: In vitro RAD51-ABL binding assay; assay type: biochemical; details: purified proteins, 0, 100 or 500 nM, 1 h
T1 construct: His; made in house; host or cells: E. coli BL21(DE3)pLysS
T1 sequence (Q06609 whole entry): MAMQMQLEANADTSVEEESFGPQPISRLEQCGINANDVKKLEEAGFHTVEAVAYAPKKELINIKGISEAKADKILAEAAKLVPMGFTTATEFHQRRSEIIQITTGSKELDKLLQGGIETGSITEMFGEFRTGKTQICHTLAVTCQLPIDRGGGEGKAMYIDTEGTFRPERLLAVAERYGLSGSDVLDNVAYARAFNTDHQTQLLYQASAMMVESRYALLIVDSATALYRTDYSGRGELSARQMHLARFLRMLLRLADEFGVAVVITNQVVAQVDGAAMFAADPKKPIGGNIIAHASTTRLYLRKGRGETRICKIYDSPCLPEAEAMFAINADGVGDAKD
Method: FIGS. 3A-3I. […] FIG. 3A. […] FIG. 3B. […] FIG. 3C. […] Three independent experiments were quantified and analyzed by one-way ANOVA * p<0.05. FIG. 3D. […] FIG. 3E. […] FIG. 3F. […] Purified RAD51 and ABL core proteins were incubated with OA-NO2 at 0, 100 or 500 nM for 1 h and ABL was precipitated. The amount of bound RAD51 was detected by immunoblot. FIG. 3G. […] RAD51 interactions with ABL and phosphorylated RAD51 Y315 were probed by IP and immunoblot. FIG. 3H. […] Cells were incubated with biotinylated NO2-OA and then lysates were precipitated with streptavidin coated agarose and detected by immunoblot. FIG. 3I.
Recombinant His-tagged RAD51 in the pET21a vector were transformed into E. coli BL21(DE3)pLysS cells (EMD Millipore) and purified.

[3] = test system: homologous recombination (DR-GFP, U2OS cells); test: DR-GFP HR reporter assay in U2OS cells; assay type: cell-based
Method: Measurements of NHEJ, HR, Alt-EJ and SSA assays were performed as previously described. HR activity was measured by counting GFP-positive cells by flow cytometry at the MWRI flow cytometry core using a BD LSRII (BD Biosciences). RAD51 overexpressing cells were generated by stable transfection of pLVX RAD51 IRES Neo and selection with geneticin (Invitrogen).
U2OS cells were prepared as above, but 5 h following compound treatment, cells were transferred into the Incucyte Zoom (Essen) live-cell imaging automated fluorescence microscope at 37° C. with 5% CO2. Cell confluence and green object count per mm2 were determined using Incucyte Zoom software. Green object count per field was normalized to cell confluency to correct for NO2—OA-induced effects on cell proliferation.
NO2-OA-dependent effects on HR DNA repair were further investigated by utilizing a DRGFP reporter assay. This analysis quantifies intracellular recombination of an integrated cDNA cassette of two tandem non-fluorescent GFP constructs following introduction of an I-SceI cleavage to the system by measuring the fluorescent GFP protein that is produced following successful recombination. […] A novel strategy was used to measure the kinetics of changes in HR in live cells by using automated fluorescence microscopy to track the emergence of GFP positive cells over time in monolayers, as opposed to making static measurements of detached cells using flow cytometry. […] This was indicated by an absence of changes in the number of GFP positive cells following I-SceI cleavage after 48 h by flow cytometric analysis or over 68 h by live-cell fluorescence microscopy (FIGS. 2C, 2D).

Structure (SMILES): CCCCCCCCC(=CCCCCCCCC(=O)O)[N+](=O)[O-] [NO2-OA, 10-nitro-octadec-9-enoic acid]
- TNFα-induced invasion (MDA-MB-468 cells): significantly inhibited
- RAD51 foci formation ([1]; 5 μM, 6 h): inhibited RAD51 foci formation
- nuclear γH2AX localization ([1]; versus vehicle): significantly increased nuclear γH2AX localization
- RAD51 cysteine targeted (Cys312Ser, Cys319Ser mutants) (RAD51): preferential reaction of NO2-OA with Cys319
- xenograft tumor growth ([2]; 7.5 mg/kg/day oral gavage, 27 days post-treatment, versus vehicle and NO2-SA): significantly reduced tumor growth
- body weight during treatment ([2]; 7.5 mg/kg/day, 4 weeks): no weight loss
- overt toxicity ([2]; 7.5 mg/kg/day, 4 weeks): no overt toxic effects
- tumor NO2-OA levels ([2]; oral administration): increased murine tumor NO2-OA levels
- TNFα-induced expression of ICAM-1 and uPA genes (NF-κB target genes; MDA-MB-231 or MDA-MB-468 cells, TNFα 20 ng/mL): suppression of TNFα-induced expression of ICAM-1 and uPA genes
- mRNA expression of NF-κB target genes (PCR array) (NF-κB target genes; MDA-MB-468 cells, 24 hr): decreased the mRNA expression of multiple NF-κB target genes
- RAD51-ABL core complex formation (RAD51 and ABL core): abolished
- HR activity in RAD51 overexpressing versus control reporter cells ([3]; 5 μM NO2-OA): significantly increased
- decrease in number of GFP-positive cells (HR) ([3]; daily 5 μM, over 68 h, live-cell microscopy): 2 fold
- decrease in number of GFP positive cells (HR) ([3]; daily NO2-OA, 48 h, flow cytometry, versus OA or vehicle): 2 fold
